We go through five compounds from PMC12586182 (Frontiers in Oncology, 2025).

SMILES strings stand for the structures.

Holding throughout (experiment): Kinase panel profiling at 1 µmol/L (mobility shift assay, Carna)
What all share (type): biochemical
Conditions in all cases: 1 µmol/L of BTK inhibitor

In one assay the target is T1, Erk5 (Homo sapiens, UniProt Q13164).
T1 construct: purchased Carna Biosciences

The target of a further assay is T2, NuaK1 (Homo sapiens, UniProt O60285).
T2 construct: purchased Carna Biosciences
T2 sequence (O60285 1-661): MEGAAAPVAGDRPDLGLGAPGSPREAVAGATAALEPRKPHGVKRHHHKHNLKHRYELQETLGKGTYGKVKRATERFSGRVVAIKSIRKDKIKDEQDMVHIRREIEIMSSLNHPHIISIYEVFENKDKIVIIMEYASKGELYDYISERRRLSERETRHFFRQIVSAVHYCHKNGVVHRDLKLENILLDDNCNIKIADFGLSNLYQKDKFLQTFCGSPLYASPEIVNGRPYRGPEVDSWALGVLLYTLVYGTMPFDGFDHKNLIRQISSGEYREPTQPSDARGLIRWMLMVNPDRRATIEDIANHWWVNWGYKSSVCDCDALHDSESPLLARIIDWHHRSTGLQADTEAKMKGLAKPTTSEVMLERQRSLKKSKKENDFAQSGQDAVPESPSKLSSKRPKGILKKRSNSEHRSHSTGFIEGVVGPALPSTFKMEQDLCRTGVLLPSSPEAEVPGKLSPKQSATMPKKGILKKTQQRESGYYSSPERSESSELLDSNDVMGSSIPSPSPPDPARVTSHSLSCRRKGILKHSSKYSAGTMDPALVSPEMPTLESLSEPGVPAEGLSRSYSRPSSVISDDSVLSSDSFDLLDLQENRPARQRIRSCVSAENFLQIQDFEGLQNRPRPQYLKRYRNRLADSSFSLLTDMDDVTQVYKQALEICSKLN

Another assay addresses T3, CaMK1α (Homo sapiens, UniProt Q14012).
T3 construct: purchased Carna Biosciences

The next assay deals with T4, TXK (Homo sapiens, UniProt P42681).
T4 construct: purchased Carna Biosciences
T4 sequence (P42681 1-527): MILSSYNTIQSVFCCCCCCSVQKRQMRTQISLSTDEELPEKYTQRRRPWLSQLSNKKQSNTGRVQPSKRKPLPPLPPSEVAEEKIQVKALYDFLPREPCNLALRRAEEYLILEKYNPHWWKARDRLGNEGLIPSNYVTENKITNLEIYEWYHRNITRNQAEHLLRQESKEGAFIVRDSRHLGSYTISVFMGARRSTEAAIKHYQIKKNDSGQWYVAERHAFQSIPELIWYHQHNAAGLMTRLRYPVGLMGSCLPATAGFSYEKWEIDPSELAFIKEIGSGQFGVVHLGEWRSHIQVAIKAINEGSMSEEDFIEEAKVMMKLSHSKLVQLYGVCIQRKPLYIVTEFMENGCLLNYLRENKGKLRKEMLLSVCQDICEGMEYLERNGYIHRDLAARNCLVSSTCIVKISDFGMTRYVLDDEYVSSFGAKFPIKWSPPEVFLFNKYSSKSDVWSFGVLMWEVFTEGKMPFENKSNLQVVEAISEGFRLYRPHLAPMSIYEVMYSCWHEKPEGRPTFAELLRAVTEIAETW

A further assay deals with T5, IRR (Homo sapiens, UniProt P14616).
T5 construct: purchased Carna Biosciences

A further assay addresses T6, CK2α2/β (Homo sapiens, UniProt P19784).
T6 construct: purchased Carna Biosciences

The next assay has as its target T7, AMPKα2/β1/γ1 (Homo sapiens, UniProt P54646).
T7 construct: purchased Carna Biosciences

Another assay deals with T8, MAPKAPK5 (Homo sapiens, UniProt Q8IW41).
T8 construct: purchased Carna Biosciences
T8 sequence (Q8IW41 1-473): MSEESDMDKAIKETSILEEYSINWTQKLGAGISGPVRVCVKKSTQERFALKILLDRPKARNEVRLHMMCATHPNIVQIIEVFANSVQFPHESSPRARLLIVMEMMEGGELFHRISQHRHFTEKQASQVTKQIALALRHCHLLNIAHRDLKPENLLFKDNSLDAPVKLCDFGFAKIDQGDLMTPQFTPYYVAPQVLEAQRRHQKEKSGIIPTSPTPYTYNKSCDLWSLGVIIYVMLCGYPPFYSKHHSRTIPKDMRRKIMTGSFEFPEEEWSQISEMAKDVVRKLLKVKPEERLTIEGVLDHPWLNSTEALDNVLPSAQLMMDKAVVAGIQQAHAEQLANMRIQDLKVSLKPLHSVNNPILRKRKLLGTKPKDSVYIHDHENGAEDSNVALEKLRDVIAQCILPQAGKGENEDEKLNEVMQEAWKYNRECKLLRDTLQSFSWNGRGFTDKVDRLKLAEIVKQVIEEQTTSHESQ

In the next assay the target is T9, CDK3/CycE1 (Homo sapiens, UniProt Q00526).
T9 construct: purchased Carna Biosciences

Another assay concerns the target T10, WNK3 (Homo sapiens, UniProt Q9BYP7).
T10 construct: purchased Carna Biosciences

A further assay addresses T11, MAPKAPK3 (Homo sapiens, UniProt Q16644).
T11 construct: purchased Carna Biosciences

The next assay has as its target T12, RSK1 (Homo sapiens, UniProt Q15418).
T12 construct: purchased Carna Biosciences

A further assay has as its target T13, NEK2 (Homo sapiens, UniProt P51955).
T13 construct: purchased Carna Biosciences
T13 sequence (P51955 1-445): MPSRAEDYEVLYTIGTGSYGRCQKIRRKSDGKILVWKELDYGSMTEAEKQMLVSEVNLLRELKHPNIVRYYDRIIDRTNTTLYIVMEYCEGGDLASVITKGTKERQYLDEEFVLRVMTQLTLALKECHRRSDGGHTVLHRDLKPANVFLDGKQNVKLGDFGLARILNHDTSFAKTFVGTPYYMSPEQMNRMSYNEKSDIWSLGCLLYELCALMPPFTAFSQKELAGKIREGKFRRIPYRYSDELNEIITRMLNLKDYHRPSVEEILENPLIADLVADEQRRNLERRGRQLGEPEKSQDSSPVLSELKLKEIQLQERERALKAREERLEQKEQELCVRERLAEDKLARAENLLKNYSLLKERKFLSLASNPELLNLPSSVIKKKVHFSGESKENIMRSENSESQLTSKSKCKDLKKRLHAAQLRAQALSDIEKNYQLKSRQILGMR

A further assay has as its target T14, MARK2 (Homo sapiens, UniProt Q7KZI7).
T14 construct: purchased Carna Biosciences

T9 sequence (Q00526 whole entry): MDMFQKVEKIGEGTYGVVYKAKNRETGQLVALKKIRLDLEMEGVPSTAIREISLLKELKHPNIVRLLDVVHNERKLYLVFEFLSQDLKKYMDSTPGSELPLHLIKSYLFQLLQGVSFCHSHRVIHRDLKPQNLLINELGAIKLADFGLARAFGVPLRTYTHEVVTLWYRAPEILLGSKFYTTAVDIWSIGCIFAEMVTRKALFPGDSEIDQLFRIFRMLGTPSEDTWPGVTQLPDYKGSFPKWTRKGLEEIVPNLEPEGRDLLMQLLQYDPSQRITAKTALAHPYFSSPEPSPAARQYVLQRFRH
T9 sequence (P24864 whole entry partner): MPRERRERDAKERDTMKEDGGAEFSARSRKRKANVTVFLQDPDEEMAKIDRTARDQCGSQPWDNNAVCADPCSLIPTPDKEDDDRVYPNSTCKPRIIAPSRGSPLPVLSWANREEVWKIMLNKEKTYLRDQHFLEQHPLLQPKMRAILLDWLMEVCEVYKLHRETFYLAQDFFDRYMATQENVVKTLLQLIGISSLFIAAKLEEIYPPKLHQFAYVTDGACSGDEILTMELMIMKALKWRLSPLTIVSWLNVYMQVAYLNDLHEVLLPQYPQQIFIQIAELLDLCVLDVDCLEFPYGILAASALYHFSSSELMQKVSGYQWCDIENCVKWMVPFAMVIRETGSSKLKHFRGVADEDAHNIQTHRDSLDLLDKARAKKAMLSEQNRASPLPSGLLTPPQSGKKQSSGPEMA
T7 sequence (P54646 whole entry): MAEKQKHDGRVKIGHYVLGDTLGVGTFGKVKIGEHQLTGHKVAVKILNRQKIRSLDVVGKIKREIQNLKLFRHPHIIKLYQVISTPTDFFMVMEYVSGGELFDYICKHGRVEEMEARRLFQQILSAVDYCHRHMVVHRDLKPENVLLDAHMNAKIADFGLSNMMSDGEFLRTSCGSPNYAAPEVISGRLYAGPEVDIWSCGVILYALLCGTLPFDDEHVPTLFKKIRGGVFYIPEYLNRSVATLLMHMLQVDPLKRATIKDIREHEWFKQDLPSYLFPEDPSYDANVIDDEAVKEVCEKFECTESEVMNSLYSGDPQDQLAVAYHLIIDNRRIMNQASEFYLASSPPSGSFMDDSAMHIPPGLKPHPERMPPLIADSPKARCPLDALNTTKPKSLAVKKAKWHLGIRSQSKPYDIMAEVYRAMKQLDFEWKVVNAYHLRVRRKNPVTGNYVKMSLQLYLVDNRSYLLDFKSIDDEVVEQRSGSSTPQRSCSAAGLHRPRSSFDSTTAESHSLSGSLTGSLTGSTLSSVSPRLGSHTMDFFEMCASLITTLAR
T7 sequence (Q9Y478 whole entry partner): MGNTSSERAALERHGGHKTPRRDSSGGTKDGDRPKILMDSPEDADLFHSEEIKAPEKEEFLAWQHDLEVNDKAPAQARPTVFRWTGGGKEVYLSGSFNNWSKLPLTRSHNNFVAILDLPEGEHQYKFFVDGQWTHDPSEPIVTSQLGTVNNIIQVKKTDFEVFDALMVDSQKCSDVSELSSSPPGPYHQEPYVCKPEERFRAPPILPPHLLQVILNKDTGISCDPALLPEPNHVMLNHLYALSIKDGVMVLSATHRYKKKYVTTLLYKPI
T7 sequence (P54619 whole entry partner): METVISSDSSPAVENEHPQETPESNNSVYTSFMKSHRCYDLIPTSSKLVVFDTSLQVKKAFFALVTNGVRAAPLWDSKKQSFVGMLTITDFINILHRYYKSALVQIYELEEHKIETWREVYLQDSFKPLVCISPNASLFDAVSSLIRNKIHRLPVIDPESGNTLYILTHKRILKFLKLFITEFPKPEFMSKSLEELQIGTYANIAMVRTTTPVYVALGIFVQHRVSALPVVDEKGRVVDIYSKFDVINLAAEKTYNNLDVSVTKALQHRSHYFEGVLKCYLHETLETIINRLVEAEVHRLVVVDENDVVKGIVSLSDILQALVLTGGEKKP
T11 sequence (Q16644 whole entry): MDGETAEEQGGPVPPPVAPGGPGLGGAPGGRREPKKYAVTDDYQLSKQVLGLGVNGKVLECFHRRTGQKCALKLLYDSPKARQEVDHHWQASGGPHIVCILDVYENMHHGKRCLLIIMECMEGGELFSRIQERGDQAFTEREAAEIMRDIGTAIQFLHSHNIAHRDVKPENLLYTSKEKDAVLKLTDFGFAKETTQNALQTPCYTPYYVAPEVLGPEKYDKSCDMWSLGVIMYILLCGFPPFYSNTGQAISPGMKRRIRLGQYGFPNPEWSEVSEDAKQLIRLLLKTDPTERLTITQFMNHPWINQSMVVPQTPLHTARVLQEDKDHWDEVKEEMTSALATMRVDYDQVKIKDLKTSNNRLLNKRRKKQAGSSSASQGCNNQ
T14 sequence (Q7KZI7 whole entry): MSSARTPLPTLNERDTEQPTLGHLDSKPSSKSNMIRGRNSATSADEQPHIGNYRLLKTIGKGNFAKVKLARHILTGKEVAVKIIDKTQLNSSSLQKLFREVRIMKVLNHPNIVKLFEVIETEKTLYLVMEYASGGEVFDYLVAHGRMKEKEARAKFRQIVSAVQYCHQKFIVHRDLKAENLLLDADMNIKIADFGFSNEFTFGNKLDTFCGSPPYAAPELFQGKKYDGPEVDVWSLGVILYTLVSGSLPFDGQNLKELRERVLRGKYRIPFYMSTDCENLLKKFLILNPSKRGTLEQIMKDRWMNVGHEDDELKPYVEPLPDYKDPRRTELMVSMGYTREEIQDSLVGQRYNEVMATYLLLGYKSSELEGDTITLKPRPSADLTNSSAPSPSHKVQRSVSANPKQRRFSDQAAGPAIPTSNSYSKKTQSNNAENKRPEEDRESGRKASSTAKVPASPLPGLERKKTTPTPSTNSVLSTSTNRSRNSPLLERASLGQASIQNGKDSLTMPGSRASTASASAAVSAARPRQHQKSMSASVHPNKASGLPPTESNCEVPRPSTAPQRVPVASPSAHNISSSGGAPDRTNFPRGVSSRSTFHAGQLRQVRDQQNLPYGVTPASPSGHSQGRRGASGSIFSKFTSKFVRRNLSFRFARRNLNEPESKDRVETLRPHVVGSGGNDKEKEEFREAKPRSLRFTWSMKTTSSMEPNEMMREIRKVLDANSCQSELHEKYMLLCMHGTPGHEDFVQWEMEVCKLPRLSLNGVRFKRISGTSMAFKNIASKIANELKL
T10 sequence (Q9BYP7 whole entry): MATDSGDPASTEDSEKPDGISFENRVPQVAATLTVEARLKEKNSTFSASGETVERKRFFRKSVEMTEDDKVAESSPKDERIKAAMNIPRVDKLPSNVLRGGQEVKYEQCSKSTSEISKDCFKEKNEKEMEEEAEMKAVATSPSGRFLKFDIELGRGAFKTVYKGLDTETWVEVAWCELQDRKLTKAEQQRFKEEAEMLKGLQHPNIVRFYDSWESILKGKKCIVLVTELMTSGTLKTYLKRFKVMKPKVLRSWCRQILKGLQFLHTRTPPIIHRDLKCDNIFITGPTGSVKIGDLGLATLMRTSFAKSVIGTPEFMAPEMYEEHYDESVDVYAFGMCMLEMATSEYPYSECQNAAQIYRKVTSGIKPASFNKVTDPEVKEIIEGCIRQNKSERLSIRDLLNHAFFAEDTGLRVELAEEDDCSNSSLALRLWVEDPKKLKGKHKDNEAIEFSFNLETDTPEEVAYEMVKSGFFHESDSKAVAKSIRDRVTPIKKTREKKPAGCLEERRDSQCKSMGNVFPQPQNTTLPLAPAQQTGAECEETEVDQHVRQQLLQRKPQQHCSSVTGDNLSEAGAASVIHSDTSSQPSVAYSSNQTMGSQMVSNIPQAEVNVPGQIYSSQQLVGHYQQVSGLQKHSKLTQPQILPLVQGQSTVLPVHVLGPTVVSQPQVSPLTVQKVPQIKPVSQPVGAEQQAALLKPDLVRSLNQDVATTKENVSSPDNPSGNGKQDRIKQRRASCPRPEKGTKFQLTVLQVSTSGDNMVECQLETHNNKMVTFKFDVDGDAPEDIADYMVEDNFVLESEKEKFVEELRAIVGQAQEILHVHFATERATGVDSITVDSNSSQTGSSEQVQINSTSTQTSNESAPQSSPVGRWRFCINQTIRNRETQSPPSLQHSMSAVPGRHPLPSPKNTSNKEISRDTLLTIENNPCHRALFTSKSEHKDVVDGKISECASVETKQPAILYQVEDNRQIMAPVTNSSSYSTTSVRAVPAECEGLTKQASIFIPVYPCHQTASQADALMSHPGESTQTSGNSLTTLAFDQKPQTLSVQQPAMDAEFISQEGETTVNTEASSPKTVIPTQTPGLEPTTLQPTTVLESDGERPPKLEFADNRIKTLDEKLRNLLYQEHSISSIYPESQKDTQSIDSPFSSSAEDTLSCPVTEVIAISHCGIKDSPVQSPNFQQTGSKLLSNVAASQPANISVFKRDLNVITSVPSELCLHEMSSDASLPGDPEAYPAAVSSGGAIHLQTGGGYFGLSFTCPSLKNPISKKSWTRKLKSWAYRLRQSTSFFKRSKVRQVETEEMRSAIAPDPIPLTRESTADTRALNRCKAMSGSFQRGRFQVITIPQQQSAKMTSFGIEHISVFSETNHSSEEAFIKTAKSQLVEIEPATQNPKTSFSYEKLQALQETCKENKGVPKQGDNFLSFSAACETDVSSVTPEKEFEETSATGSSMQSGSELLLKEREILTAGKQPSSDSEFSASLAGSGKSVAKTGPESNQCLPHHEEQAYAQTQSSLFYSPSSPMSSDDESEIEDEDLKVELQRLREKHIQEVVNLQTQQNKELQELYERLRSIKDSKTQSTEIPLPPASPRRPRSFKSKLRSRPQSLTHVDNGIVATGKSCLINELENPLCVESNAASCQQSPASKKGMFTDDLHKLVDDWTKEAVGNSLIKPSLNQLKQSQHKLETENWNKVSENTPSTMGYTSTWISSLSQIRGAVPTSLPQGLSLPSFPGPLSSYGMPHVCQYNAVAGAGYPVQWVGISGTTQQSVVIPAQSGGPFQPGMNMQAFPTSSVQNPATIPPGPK

Regarding `CC#CC(=O)N1CCC[C@H]1c1nc(-c2ccc(C(=O)Nc3ccccn3)cc2)c2c(N)nccn12` [acalabrutinib], the “Percentage inhibition of kinase enzyme activity” value (from here on “Percentage inhibition”) at Erk5 is recorded as -2.12%; at NuaK1, -3.51%; on CaMK1α it was -4.29%; on TXK, 67.66%; on IRR, -0.87%; on CK2α2/β, 9.56%. Further, the “Percentage inhibition” value is 3.50% at AMPKα2/β1/γ1; -1.87% on MAPKAPK5; -6.14% at CDK3/CycE1; -0.26% on WNK3; -11.15% at MAPKAPK3; 3.57% at RSK1. In addition, the “Percentage inhibition” value is reported as -6.35% at NEK2 and -9.24% on MARK2.
Regarding `C=CC(=O)N1CCC[C@@H](n2nc(-c3ccc(Oc4ccccc4)cc3)c3c(N)ncnc32)C1` [ibrutinib], the “Percentage inhibition” value on Erk5 is on record as 3.89%; at NuaK1, 6.70%; on CaMK1α, 13.82%; at TXK, 98.38%; at IRR, 11.54%; on CK2α2/β, -7.37%. For the same compound, the “Percentage inhibition” value is 10.21% on AMPKα2/β1/γ1; -2.44% at MAPKAPK5; 0.49% at CDK3/CycE1; 6.84% at WNK3; -6.50% at MAPKAPK3; 5.47% on RSK1. Further, the “Percentage inhibition” value at NEK2 is listed as 6.64%; on MARK2 it was 2.67%.
On to `O=C(c1ccc(Oc2ccccc2)cc1Cl)c1c[nH]c2ncnc(N[C@@H]3CC[C@@H](CO)OC3)c12` [nemtabrutinib], for which the “Percentage inhibition” value is given as 15.76% at Erk5; 3.95% on NuaK1; 11.41% at CaMK1α; 97.01% at TXK; 77.13% at IRR; -3.55% on CK2α2/β. Further, the “Percentage inhibition” value is listed as 40.46% at AMPKα2/β1/γ1; -2.46% on MAPKAPK5; 7.04% on CDK3/CycE1; 52.96% on WNK3; -15.88% on MAPKAPK3; 17.84% at RSK1. The “Percentage inhibition” value is on record as 74.64% at NEK2 and -4.16% on MARK2.
Turning to `COc1ccc(F)cc1C(=O)NCc1ccc(-c2nn([C@@H](C)C(F)(F)F)c(N)c2C(N)=O)cc1` [pirtobrutinib], the “Percentage inhibition” value at Erk5 was 0.51%; at NuaK1 it was 4.02%; on CaMK1α it was -9.87%; on TXK, 43.03%; at IRR, -6.47%; at CK2α2/β, 4.12%. Also, the “Percentage inhibition” value at AMPKα2/β1/γ1 is given as 6.23%; at MAPKAPK5, -1.10%; at CDK3/CycE1 it was -4.77%; on WNK3 it was 2.54%; on MAPKAPK3, -18.63%; at RSK1, 5.53%. Also, the “Percentage inhibition” value on NEK2 amounted to 2.00%; at MARK2, 2.21%.
With `C=CC(=O)N1CCC([C@@H]2CCNc3c(C(N)=O)c(-c4ccc(Oc5ccccc5)cc4)nn32)CC1` [zanubrutinib], the entries for the “Percentage inhibition” value on TXK, on IRR and at MAPKAPK3 were 89.43%, 34.27% and -12.22%, respectively.
